Test results taken from patent US20100292231A1, “Indazole Compounds for Treating Inflammatory Disorders, Demyelinating Disorders and Cancers” (priority 2007, published 2010).

Columns and labels:
Experiment in all cases: SelectScreen kinase specificity survey
Format in all cases: biochemical
Details in all cases: estimated, abridged dose response curve, read-out: Kinase inhibitory activity EC50
SRMS (Srm) = biological target: T1, SRMS (Srm) (Homo sapiens, UniProt Q9H3Y6)
T1 construct: purchased Invitrogen (SelectScreen)
Summary of the method: (§1)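 Optical reporter read-out of substrate phosphorylation, with a substrate unique to each kinase and ATP at 100 micromolar. A 5-increment inhibitor series was fitted by a sigmoid 4-parameter Hill model.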

EEF2K = biological target: T2, EEF2K (Homo sapiens, UniProt O00418)
T2 construct: purchased Invitrogen, Inc. (SelectScreen platform)
Summary of the method: as §1

PRKCE (PKC epsilon) = biological target: T3, PRKCE (PKC epsilon) (Homo sapiens, UniProt Q02156)
T3 construct: purchased Invitrogen, Inc. (SelectScreen platform)
Summary of the method: as §1

MAP2K1 (MEK1) = biological target: T4, MAP2K1 (MEK1) (Homo sapiens, UniProt Q02750)
T4 construct: purchased Invitrogen (SelectScreen platform)
Summary of the method: as §1

NEK9 = biological target: T5, NEK9 (Homo sapiens, UniProt Q8TD19)
T5 construct: purchased Invitrogen, Inc. (SelectScreen service)
Summary of the method: as §1

IGF1R = biological target: T6, IGF1R (Homo sapiens, UniProt P08069)
T6 construct: purchased Invitrogen (SelectScreen platform)
Summary of the method: as §1

MAPK13 (p38 delta) = biological target: T7, MAPK13 (p38 delta) (Homo sapiens, UniProt O15264)
T7 construct: purchased Invitrogen, Inc. (SelectScreen service)
Summary of the method: as §1

FLT3 D835Y = biological target: T8, FLT3 D835Y (Homo sapiens, UniProt P36888, D835Y)
T8 construct: purchased Invitrogen (SelectScreen platform)
T8 sequence (P36888 27-993 D835Y): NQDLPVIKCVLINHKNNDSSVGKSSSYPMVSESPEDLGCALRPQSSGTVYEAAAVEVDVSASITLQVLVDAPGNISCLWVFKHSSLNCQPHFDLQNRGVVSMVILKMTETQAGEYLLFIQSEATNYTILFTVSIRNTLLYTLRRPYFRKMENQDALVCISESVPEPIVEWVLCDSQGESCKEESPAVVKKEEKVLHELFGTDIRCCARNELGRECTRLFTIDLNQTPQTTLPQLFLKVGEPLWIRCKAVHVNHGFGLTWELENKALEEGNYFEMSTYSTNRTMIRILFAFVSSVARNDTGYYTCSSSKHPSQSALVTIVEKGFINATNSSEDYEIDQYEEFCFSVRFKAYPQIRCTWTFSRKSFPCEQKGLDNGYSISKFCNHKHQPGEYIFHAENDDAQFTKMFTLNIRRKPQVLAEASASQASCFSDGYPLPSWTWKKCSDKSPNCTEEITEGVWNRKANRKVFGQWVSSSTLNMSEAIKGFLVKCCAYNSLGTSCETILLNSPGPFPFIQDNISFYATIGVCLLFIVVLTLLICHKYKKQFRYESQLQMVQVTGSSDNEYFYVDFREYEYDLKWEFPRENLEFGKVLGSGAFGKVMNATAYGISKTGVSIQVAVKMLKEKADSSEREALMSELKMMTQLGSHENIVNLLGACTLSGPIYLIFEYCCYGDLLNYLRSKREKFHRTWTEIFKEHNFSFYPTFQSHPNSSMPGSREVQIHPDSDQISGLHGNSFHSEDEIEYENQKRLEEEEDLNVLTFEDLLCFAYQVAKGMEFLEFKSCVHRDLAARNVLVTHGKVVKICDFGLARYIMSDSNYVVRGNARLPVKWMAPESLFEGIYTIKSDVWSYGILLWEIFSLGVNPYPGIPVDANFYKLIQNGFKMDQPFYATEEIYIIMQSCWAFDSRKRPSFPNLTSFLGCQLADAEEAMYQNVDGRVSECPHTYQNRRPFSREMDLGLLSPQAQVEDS
Summary of the method: as §1

ABL1 T315I = biological target: T9, ABL1 T315I (Homo sapiens, UniProt P00519, T315I)
T9 construct: purchased Invitrogen (SelectScreen platform)
Summary of the method: as §1

FYN = biological target: T10, FYN (Homo sapiens, UniProt P06241)
T10 construct: purchased Invitrogen (SelectScreen)
Summary of the method: as §1

MAPK3 (ERK1) = biological target: T11, MAPK3 (ERK1) (Homo sapiens, UniProt P27361)
T11 construct: purchased Invitrogen, Inc. (SelectScreen service)
Summary of the method: as §1

CDK1/cyclin B (CDC2) = biological target: T12, CDK1/cyclin B (CDC2) (Homo sapiens, UniProt P06493)
T12 construct: purchased Invitrogen (SelectScreen platform)
Summary of the method: as §1

MUSK = biological target: T13, MUSK (Homo sapiens, UniProt O15146)
T13 construct: purchased Invitrogen (SelectScreen platform)
Summary of the method: as §1

T7 sequence (O15264 whole entry): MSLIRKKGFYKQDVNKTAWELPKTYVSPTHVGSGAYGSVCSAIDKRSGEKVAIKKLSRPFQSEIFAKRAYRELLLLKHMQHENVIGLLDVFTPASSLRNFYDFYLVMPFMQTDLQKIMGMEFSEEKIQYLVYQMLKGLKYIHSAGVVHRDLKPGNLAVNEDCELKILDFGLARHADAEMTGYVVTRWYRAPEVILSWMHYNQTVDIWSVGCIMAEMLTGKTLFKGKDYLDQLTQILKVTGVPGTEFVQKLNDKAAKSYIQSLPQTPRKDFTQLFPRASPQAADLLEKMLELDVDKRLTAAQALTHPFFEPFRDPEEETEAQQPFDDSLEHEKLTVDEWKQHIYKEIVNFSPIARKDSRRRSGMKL
T13 sequence (O15146 24-869): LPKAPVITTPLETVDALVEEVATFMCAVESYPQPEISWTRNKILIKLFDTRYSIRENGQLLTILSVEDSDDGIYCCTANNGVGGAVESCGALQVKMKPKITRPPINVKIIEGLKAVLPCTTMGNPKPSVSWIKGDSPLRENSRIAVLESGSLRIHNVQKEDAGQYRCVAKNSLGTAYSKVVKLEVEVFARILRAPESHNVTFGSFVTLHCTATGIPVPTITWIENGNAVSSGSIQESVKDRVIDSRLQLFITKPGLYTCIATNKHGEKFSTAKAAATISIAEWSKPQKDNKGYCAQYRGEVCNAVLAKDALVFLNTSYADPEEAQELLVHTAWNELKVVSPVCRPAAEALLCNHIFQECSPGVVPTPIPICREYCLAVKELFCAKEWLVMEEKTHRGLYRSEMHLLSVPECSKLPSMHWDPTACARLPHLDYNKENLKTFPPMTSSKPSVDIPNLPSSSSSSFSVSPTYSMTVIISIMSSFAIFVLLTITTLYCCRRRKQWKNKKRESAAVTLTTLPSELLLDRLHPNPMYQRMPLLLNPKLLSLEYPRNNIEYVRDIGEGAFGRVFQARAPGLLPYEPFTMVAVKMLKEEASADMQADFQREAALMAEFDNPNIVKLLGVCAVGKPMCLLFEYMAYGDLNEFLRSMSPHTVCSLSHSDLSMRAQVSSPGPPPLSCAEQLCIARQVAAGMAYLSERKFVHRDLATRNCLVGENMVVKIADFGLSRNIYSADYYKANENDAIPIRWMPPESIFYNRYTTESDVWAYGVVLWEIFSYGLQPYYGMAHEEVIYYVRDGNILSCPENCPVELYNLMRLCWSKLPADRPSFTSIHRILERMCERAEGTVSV
T6 sequence (P08069 31-1367): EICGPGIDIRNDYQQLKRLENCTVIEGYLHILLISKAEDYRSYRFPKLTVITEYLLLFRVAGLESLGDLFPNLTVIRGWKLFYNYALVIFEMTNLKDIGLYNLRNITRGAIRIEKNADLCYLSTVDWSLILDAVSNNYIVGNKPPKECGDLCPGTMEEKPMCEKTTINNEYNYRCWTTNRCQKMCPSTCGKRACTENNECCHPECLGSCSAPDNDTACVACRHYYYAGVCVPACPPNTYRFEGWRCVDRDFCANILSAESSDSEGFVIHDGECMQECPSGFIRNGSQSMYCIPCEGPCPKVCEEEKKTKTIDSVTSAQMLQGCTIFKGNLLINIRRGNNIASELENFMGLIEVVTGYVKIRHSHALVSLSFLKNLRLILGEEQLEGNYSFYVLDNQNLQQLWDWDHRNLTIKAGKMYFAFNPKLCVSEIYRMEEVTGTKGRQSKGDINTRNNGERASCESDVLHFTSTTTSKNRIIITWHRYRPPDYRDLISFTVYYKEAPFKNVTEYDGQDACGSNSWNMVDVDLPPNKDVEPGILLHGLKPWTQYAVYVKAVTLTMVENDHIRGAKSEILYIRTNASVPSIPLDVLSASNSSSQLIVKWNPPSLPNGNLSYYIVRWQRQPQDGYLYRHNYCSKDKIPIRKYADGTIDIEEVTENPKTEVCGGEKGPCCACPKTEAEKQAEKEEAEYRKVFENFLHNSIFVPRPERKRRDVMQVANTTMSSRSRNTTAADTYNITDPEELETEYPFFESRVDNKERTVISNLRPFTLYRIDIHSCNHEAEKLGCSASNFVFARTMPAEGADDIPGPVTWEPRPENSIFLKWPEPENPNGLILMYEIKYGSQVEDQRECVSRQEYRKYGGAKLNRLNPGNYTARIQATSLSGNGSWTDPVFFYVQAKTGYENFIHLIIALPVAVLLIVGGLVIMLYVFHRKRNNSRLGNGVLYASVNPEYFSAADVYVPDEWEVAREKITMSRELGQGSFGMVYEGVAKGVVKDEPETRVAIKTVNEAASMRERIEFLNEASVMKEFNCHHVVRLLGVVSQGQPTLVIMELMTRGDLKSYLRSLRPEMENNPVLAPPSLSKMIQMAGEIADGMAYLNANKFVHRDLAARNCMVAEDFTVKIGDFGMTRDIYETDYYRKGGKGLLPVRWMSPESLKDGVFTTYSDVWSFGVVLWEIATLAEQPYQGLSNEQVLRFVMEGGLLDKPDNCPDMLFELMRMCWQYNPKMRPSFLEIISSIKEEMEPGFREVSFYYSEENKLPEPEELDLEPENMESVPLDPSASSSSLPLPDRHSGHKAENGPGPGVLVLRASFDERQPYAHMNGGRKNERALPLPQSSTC
T1 sequence (Q9H3Y6 whole entry): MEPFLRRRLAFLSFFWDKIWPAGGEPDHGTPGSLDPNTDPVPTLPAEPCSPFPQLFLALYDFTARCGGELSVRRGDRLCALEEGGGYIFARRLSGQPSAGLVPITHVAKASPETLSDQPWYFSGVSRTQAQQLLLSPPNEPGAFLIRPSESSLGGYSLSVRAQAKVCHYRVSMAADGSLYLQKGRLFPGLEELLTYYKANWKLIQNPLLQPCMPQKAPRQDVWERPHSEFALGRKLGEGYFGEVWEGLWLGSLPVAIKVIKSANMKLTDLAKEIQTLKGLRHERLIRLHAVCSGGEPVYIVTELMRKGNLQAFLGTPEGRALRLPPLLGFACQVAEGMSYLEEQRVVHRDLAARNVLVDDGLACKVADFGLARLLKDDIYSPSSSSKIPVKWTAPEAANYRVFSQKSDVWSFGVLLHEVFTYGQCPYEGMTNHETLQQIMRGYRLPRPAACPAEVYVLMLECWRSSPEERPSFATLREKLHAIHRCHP
T10 sequence (P06241 whole entry): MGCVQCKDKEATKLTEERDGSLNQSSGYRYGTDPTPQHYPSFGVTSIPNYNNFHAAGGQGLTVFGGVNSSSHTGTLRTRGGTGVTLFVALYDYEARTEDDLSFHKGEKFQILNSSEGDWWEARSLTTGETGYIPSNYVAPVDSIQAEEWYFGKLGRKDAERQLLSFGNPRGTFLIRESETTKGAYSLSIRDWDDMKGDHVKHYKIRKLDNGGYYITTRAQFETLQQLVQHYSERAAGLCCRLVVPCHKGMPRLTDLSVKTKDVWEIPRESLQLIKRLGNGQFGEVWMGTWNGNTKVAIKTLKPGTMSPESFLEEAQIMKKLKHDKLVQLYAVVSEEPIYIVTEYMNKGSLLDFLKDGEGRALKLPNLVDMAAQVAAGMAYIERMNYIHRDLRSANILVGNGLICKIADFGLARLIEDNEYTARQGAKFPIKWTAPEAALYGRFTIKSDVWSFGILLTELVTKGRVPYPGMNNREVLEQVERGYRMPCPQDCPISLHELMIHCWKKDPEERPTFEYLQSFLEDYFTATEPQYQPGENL
T4 sequence (Q02750 whole entry): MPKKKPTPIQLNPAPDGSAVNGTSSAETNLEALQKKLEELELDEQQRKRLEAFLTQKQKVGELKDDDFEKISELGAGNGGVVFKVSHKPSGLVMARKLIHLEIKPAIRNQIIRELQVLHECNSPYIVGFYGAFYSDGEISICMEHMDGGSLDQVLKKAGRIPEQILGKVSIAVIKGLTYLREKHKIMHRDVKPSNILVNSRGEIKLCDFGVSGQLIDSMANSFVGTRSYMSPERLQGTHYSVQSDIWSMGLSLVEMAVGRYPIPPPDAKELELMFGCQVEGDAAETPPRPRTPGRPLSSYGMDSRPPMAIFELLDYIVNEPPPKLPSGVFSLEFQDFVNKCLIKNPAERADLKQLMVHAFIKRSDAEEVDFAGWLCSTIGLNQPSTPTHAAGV
T11 sequence (P27361 whole entry): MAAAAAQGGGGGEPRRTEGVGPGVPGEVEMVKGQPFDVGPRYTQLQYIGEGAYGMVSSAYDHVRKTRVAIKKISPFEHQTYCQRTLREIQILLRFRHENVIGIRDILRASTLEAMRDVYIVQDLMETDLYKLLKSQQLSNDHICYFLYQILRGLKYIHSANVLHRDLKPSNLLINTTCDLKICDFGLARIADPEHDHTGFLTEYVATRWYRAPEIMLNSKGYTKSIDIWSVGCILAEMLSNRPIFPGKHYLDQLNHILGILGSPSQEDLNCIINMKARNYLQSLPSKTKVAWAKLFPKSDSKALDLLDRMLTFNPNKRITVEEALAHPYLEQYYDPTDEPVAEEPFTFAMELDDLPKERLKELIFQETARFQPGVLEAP

Compound	EC50 (SRMS (Srm))	EC50 (EEF2K)	EC50 (PRKCE (PKC epsilon))	EC50 (MAP2K1 (MEK1))	EC50 (NEK9)	EC50 (IGF1R)	EC50 (MAPK13 (p38 delta))	EC50 (FLT3 D835Y)	EC50 (ABL1 T315I)	EC50 (FYN)	EC50 (MAPK3 (ERK1))	EC50 (CDK1/cyclin B (CDC2))	EC50 (MUSK)
CN(C)CCCNc1ccc2ncn3c4ccc5[nH]ncc5c4c(=O)c1c23 [Compound (IV)]	> 5 µM	> 5 µM	2.52 µM	> 5 µM	2.93 µM	1.56 µM	> 5 µM	0.001 µM	> 5 µM	0.754 µM	> 5 µM	3.95 µM	1.43 µM
CCN(CC)CCNc1ccc2ncn3c4ccc(O)cc4c(=O)c1c23 [Symadex, 5-(2-(diethylamino)ethylamino)-8-hydroxy-6H-imidazo[4,5,1-de]acridin-6-one, reference compound]	> 5 µM	> 5 µM	> 5 µM	> 5 µM	> 5 µM	> 5 µM	> 5 µM	0.003 µM	> 5 µM	> 5 µM	> 5 µM	> 5 µM	3.71 µM
